Data from PubChem BioAssay AID1963980 (Molecular Pharmacology Branch, DTP, NCI, 2024).
Blank lines part the entries; values can stand above or below the compound they belong to.

Tested on: 475296-252-R-J1-PDC spheroid viability
Assay: Anticancer human tumor 475296-252-R-J1-PDC patient-derived rectal carcinoma cell line growth inhibition [PI3K]
Details: spheroids with HUVEC and MSC; for IC50: curve of first compound; for viability, T/C: stronger effect = lower value
Procedure, shortened: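 Complex 3D spheroids (cancer cells + endothelial HUVEC + mesenchymal stem cells); drug pairs of targeted agent x inavolisib/alpelisib/duvelisib/copanlisib; half-log series from ~Cmax, max 10 microM if Cmax unknown; endpoint viability.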

[1] = second compound 0.0316 µM, first compound 0.0316 µM
[2] = second compound 0.0316 µM, first compound 0.1 µM
[3] = second compound 0.0316 µM, first compound 0.316 µM
[4] = second compound 0.0316 µM, first compound 1 µM
[5] = second compound 0.0316 µM, first compound 3.16 µM
[6] = second compound 0.0316 µM, first compound 10 µM
[7] = second compound 0.1 µM, first compound 0.0316 µM
[8] = second compound 0.1 µM, first compound 0.1 µM
[9] = second compound 0.1 µM, first compound 0.316 µM
[10] = second compound 0.1 µM, first compound 1 µM
[11] = second compound 0.1 µM, first compound 3.16 µM
[12] = second compound 0.1 µM, first compound 10 µM
[13] = second compound 0.316 µM, first compound 0.0316 µM
[14] = second compound 0.316 µM, first compound 0.1 µM
[15] = second compound 0.316 µM, first compound 0.316 µM
[16] = second compound 0.316 µM, first compound 1 µM
[17] = second compound 0.316 µM, first compound 3.16 µM
[18] = second compound 0.316 µM, first compound 10 µM
[19] = second compound 1 µM, first compound 0.0316 µM
[20] = second compound 1 µM, first compound 0.1 µM
[21] = second compound 1 µM, first compound 0.316 µM
[22] = second compound 1 µM, first compound 1 µM
[23] = second compound 1 µM, first compound 3.16 µM
[24] = second compound 1 µM, first compound 10 µM
[25] = second compound 3.16 µM, first compound 0.0316 µM
[26] = second compound 3.16 µM, first compound 0.1 µM
[27] = second compound 3.16 µM, first compound 0.316 µM
[28] = second compound 3.16 µM, first compound 1 µM
[29] = second compound 3.16 µM, first compound 3.16 µM
[30] = second compound 3.16 µM, first compound 10 µM
[31] = second compound 10 µM, first compound 0.0316 µM
[32] = second compound 10 µM, first compound 0.1 µM
[33] = second compound 10 µM, first compound 0.316 µM
[34] = second compound 10 µM, first compound 1 µM
[35] = second compound 10 µM, first compound 3.16 µM
[36] = second compound 10 µM, first compound 10 µM
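Further: spheroids exposed to agents for seven days before readout.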

- IC50 (second compound 0.0316 µM): > 10 µM
- IC50 (second compound 0.1 µM): > 10 µM
- IC50 (second compound 0.316 µM): > 10 µM
- IC50 (second compound 1 µM): > 10 µM
- IC50 (second compound 3.16 µM): > 10 µM
- IC50 (second compound 10 µM): > 10 µM
SMILES: CC(Cn1ccc(-c2ccc(C#N)c(Cl)c2)n1)NC(=O)c1cc(C(C)O)[nH]n1 (stereo unspecified) + Cc1nc(NC(=O)N2CCCC2C(N)=O)sc1-c1ccnc(C(C)(C)C(F)(F)F)c1
- viability, T/C [1]: 105%
- viability, T/C [2]: 108%
- viability, T/C [3]: 110%
- viability, T/C [4]: 98.4%
- viability, T/C [5]: 105%
- viability, T/C [6]: 107%
- viability, T/C [7]: 98.1%
- viability, T/C [8]: 99.7%
- viability, T/C [9]: 111%
- viability, T/C [10]: 105%
- viability, T/C [11]: 120%
- viability, T/C [12]: 112%
- viability, T/C [13]: 93.1%
- viability, T/C [14]: 104%
- viability, T/C [15]: 103%
- viability, T/C [16]: 97.9%
- viability, T/C [17]: 102%
- viability, T/C [18]: 99.1%
- viability, T/C [19]: 95.9%
- viability, T/C [20]: 108%
- viability, T/C [21]: 91.4%
- viability, T/C [22]: 99.2%
- viability, T/C [23]: 111%
- viability, T/C [24]: 111%
- viability, T/C [25]: 98.4%
- viability, T/C [26]: 96.1%
- viability, T/C [27]: 103%
- viability, T/C [28]: 105%
- viability, T/C [29]: 105%
- viability, T/C [30]: 101%
- viability, T/C [31]: 90.2%
- viability, T/C [32]: 84.3%
- viability, T/C [33]: 97%
- viability, T/C [34]: 98.9%
- viability, T/C [35]: 95%
- viability, T/C [36]: 91.2%

- IC50 (second compound 0.0316 µM): > 10 µM
- IC50 (second compound 0.1 µM): > 10 µM
- IC50 (second compound 0.316 µM): > 10 µM
- IC50 (second compound 1 µM): > 10 µM
- IC50 (second compound 3.16 µM): 8.01 µM
- IC50 (second compound 10 µM): 4.16 µM
SMILES: Cn1ncc(Cl)c1-c1cc(C(=O)NC(CN)Cc2cccc(F)c2)sc1Cl (stereo unspecified) + Cc1nc(NC(=O)N2CCCC2C(N)=O)sc1-c1ccnc(C(C)(C)C(F)(F)F)c1
- viability, T/C [1]: 91.1%
- viability, T/C [2]: 74.3%
- viability, T/C [3]: 75.3%
- viability, T/C [4]: 67.1%
- viability, T/C [5]: 71.3%
- viability, T/C [6]: 67.4%
- viability, T/C [7]: 96.9%
- viability, T/C [8]: 85.2%
- viability, T/C [9]: 66.8%
- viability, T/C [10]: 54%
- viability, T/C [11]: 64.4%
- viability, T/C [12]: 67.4%
- viability, T/C [13]: 77.6%
- viability, T/C [14]: 83.5%
- viability, T/C [15]: 73.4%
- viability, T/C [16]: 55.9%
- viability, T/C [17]: 67.3%
- viability, T/C [18]: 54%
- viability, T/C [19]: 84.5%
- viability, T/C [20]: 85.4%
- viability, T/C [21]: 78%
- viability, T/C [22]: 58.5%
- viability, T/C [23]: 62.8%
- viability, T/C [24]: 51.2%
- viability, T/C [25]: 83.1%
- viability, T/C [26]: 78.8%
- viability, T/C [27]: 84.2%
- viability, T/C [28]: 67%
- viability, T/C [29]: 61.5%
- viability, T/C [30]: 47.2%
- viability, T/C [31]: 84.8%
- viability, T/C [32]: 78.8%
- viability, T/C [33]: 81.7%
- viability, T/C [34]: 69.3%
- viability, T/C [35]: 57.6%
- viability, T/C [36]: 28.5%

- IC50 (second compound 0.0316 µM): > 10 µM
- IC50 (second compound 0.1 µM): > 10 µM
- IC50 (second compound 0.316 µM): > 10 µM
- IC50 (second compound 1 µM): > 10 µM
- IC50 (second compound 3.16 µM): > 10 µM
- IC50 (second compound 10 µM): 1.44 µM
SMILES: Cn1nccc1Nc1nccc(-c2ccn(C(CO)c3ccc(Cl)c(F)c3)c(=O)c2)n1 (stereo unspecified) + Cc1nc(NC(=O)N2CCCC2C(N)=O)sc1-c1ccnc(C(C)(C)C(F)(F)F)c1
- viability, T/C [1]: 108%
- viability, T/C [2]: 94.2%
- viability, T/C [3]: 106%
- viability, T/C [4]: 88.9%
- viability, T/C [5]: 99.6%
- viability, T/C [6]: 79.2%
- viability, T/C [7]: 95.8%
- viability, T/C [8]: 87.3%
- viability, T/C [9]: 94.6%
- viability, T/C [10]: 91.4%
- viability, T/C [11]: 99.6%
- viability, T/C [12]: 75.9%
- viability, T/C [13]: 105%
- viability, T/C [14]: 108%
- viability, T/C [15]: 87.2%
- viability, T/C [16]: 85%
- viability, T/C [17]: 81.1%
- viability, T/C [18]: 68.5%
- viability, T/C [19]: 92.1%
- viability, T/C [20]: 91.5%
- viability, T/C [21]: 91%
- viability, T/C [22]: 84.5%
- viability, T/C [23]: 88%
- viability, T/C [24]: 59.9%
- viability, T/C [25]: 85.9%
- viability, T/C [26]: 89.3%
- viability, T/C [27]: 79.8%
- viability, T/C [28]: 79.1%
- viability, T/C [29]: 58.8%
- viability, T/C [30]: 50.7%
- viability, T/C [31]: 87.7%
- viability, T/C [32]: 86%
- viability, T/C [33]: 83.7%
- viability, T/C [34]: 63.1%
- viability, T/C [35]: 21.8%
- viability, T/C [36]: 8.46%
